Reference: patent US10590440B2, “Process for producing a fermentation product from a lignocellulose-containing material” (CysBio ApS, priority 2014, dated 2020)

Key:
Assay type in all cases: cell-based, Escherichia coli
[1] = test system: E. coli MG1655; assay: Toxicity of unsulfated or sulfated product: growth rate of E. coli MG1655 (Example 3, FIG. 5); settings: M9 0.2% glucose, pH 7, 37° C.; pHCA 10-40 mM, zosteric acid 20 or 40 mM
From the text: All media preparations had been adjusted to pH 7. […] Filled squares represent growth rates in media with pHCA.

[2] = test system: E. coli BL21(DE3)pLysS; assay: Cell density of E. coli in media with ferulic acid, strain without SULT1A1 (Example 4); settings: after 17 h at 37° C., inoculated at OD600 0.002
Description: (§1) The two strains BL21(DE3)pLysS and the strain carrying SULT1A1 were grown in M9 minimal media with 0.2% glucose, appropriate antibiotics for maintenance of the plasmids, and 0.1 mM IPTG for induction of expression of the sulfotransferase. We added ferulic acid to final concentration of either 2.5 mM or 5 mM (ferulic acid was dissolved in ethanol, which reached a final concentration of 2% in the media). Ferulic acid is a growth inhibitory compound found in lignocellulotic biomass hydrolysate. Cells were inoculated into the medium to an optical density at 600 nm (OD600) of 0.002 in a 1 cm light path. […] Presence of an aryl sulfotransferase removes the inhibition caused by ferulic acid.

[3] = test system: E. coli BL21(DE3)pLysS carrying SULT1A1; assay: Cell density of E. coli in media with ferulic acid, strain carrying SULT1A1 Homo sapiens (Example 4); settings: after 17 h at 37° C., inoculated at OD600 0.002
From the text: SULT1A1 from Homo sapiens (SEQ ID NO: 2) mentioned in example 1 was cloned into the plasmid vector pET-28a(+) (Novagen, Life Technologies) as follows: The gene encoding the SULT1A1 was codon optimized for expression in E. coli by GeneArt (LifeTechnologies) and synthesized such that the start codon is an Ncol restriction site. The stop codon is immediately followed by a SalI site. The Ncol and SalI fragment of this DNA piece was cloned into the pET-28a(+) digested with Ncol and SalI using T4 DNA ligase. The resulting plasmid was transformed into E. coli BL21(DE3)pLysS (Life Technologies) selecting for resistance to […] kanamycin.
as §1

Row | SMILES | Toxicity to the cells (growth rates in exponential growth phase) [1] | Optical density at 600 nm ([2]; 2.5 mM ferulic acid) | Optical density at 600 nm ([2]; 5 mM ferulic acid) | Optical density at 600 nm ([3]; 2.5 mM ferulic acid) | Optical density at 600 nm ([3]; 5 mM ferulic acid)
1 | O=C(O)/C=C/c1ccc(O)cc1 [pHCA, p-coumaric acid] | toxic to the cells | – | – | – | –
2 | O=C(O)/C=C/c1ccc(OS(=O)(=O)O)cc1 [zosteric acid] | much less so | – | – | – | –
3 | COc1cc(/C=C/C(=O)O)ccc1O [ferulic acid] | – | 0.680 | 0.370 | 1.410 | 1.340
